Drawing on US20250101019A1 (Insilico Medicine IP Limited, priority 2022, published 2025), this text covers IC50 for 27 compounds.

Experiment [1] has as its target T1, ENPP1 (Homo sapiens (Human), UniProt P22413). The experiment in a line: cGAMP-Glo enzymatic assay (2′3′-cGAMP substrate, AMP-Glo readout). The experiment is classed as biochemical. To be noted: substrate 2′3′-cGAMP; 25° C. for 60 min; 50 mM Tris pH 8.8. The protocol:
(§1) Example A: Enzymatic Assay
(§2) • 1. Diluted compounds in DMSO by hand for 11 points, 3 folds dilution. Then transferred 0.02 μL compounds to 384 assay plate by ECHO. • 2. Added 2 μL specified concentration of ENPP1 to 384 assay plate. Centrifuged 1000 RPM for 1 min. • 3. Added 2 μL specified concentration of ATP to the assay plate. Centrifuged 1000 RPM for 1 min. • 4. Incubated at 25° C. for 60 min. • 5. Added 4 μL AMP-Glo Reagent to the assay plates. • 6. Centrifuged 1000 RPM for 1 min, incubate at 25° C. for 1 hours. • 7. Added 8 μL Kinase Detection Reagent to the assay plates. • 8. Centrifuged 1000 RPM for 1 min, incubated at 25° C. for 1 hours. The final assay reaction mixture contained a buffer of 50 mM Tris pH 8.8, 250 mM NaCl and 0.1% BSA • 9. Read on Envision for US LUM as RLU. • 10. Analyzed the raw data using the equation (V. Data analysis). cGAMP-Glo Assay: • 1. Diluted compounds in DMSO by hand for 11 points, 3 folds dilution. Then transferred 0.02 μL compounds to 384 assay plate by ECHO. • 2. Added 2 μL specified concentration of ENPP1 to 384 assay plate, centrifuged 1000 RPM for 1 min. • 3. Added 2 μL specified concentration of 2′3′-cGAMP to the assay plate, centrifuged 1000 RPM for 1 min. • 4. Incubated at 25° C. for 60 min. • 5. Added 4 μL AMP-Glo Reagent to the assay plates. • 6. Centrifuged 1000 RPM for 1 min, incubated at 25° C. for 1 hours. • 7. Added 8 μL Kinase Detection Reagent to the assay plates. • 8. Centrifuged 1000 RPM for 1 min, incubate at 25° C. for 1 hours. The final assay reaction mixture contained a buffer of 50 mM Tris pH 8.8, 250 mM NaCl and 0.1% BSA • 9. Read on Envision for US LUM as RLU. • 10. Analyzed the raw data using the equation (V. Data analysis).

The target in experiment [2] is T1, ENPP1. The experiment in a line: ATP-Glo enzymatic assay (ATP substrate, AMP-Glo readout). The experiment is classed as biochemical. The note with it: 25° C. for 60 min, 50 mM Tris pH 8.8. The procedure: as §1, §2

A value given as a limit tells only on which side of the number the result lay.

The term IC50 denotes the point on the concentration scale where inhibition reaches its midpoint. Read a high IC50 as weaker potency in that assay.

T1 sequence (P22413 whole entry, species assumed): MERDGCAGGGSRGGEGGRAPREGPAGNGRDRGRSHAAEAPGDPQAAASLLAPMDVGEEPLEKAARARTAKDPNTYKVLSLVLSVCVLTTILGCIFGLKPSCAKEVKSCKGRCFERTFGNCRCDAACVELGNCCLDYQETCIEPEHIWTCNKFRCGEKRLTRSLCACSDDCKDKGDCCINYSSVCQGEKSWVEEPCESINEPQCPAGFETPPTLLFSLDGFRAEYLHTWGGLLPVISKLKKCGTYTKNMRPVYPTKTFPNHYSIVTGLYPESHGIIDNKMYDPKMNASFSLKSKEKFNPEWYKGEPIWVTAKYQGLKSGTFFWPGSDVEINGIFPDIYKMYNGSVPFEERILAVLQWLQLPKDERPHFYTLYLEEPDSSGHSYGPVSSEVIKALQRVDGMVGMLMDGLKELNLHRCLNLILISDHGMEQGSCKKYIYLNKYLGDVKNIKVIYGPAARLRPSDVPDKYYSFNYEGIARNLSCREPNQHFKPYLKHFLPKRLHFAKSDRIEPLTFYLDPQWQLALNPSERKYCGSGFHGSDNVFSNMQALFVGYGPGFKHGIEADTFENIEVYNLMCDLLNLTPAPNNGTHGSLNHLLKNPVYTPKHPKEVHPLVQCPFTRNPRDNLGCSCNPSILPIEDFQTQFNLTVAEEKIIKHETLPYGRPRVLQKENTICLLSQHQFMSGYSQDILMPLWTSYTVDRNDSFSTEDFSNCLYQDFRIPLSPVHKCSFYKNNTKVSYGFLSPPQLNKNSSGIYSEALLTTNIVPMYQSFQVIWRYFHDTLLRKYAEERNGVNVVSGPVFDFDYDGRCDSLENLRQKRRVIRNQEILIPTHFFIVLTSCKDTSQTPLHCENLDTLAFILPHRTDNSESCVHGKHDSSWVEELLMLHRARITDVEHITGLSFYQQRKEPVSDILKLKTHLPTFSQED

Consider `Cc1ncc2nc(C)n(Cc3c(F)cc(S(N)(=O)=O)cc3F)c2c1C` [Example 63, 3,5-difluoro-4-((2,6,7-trimethyl-1H-imidazo[4,5-c]pyridin-1-yl)methyl)benzenesulfonamide], for which the IC50 against ENPP1 [1] and against ENPP1 [2] was less than 1 nM in each case.
For `Cc1ncc2c(C)cn(Cc3c(F)cc(S(N)(=O)=O)cc3F)c2c1-c1ccn(C(F)(F)F)n1` [Example 18, 4-((3,6-dimethyl-7-(1-(trifluoromethyl)-1H-pyrazol-3-yl)-1H-pyrrolo[3,2-c]pyridin-1-yl)methyl)-3,5-difluorobenzenesulfonamide], the IC50 lay in the range of 10 to 100 nM at ENPP1 [1] and 100 to 1000 nM against ENPP1 [2].
As to `COc1ncc2c(C)cn(Cc3ccc(S(N)(=O)=O)cc3)c2c1-c1ccc(F)cc1` [Example 12], the IC50 at ENPP1 [1] and against ENPP1 [2] was 10 to 100 nM throughout.
Turning to `Cc1ncc2ccn(Cc3ccc(S(N)(=O)=O)cc3)c2c1-c1ccccc1` [Example 15, 4-((6-methyl-7-phenyl-1H-pyrrolo[3,2-c]pyridin-1-yl)methyl)benzene sulfonamide], the IC50 against ENPP1 [1] and against ENPP1 [2] was less than 1 nM in each case.
Turning to `Cc1nc2cncc(-c3ccccc3)c2n1Cc1c(F)cc(S(N)(=O)=O)cc1F` [Example 43, 3,5-difluoro-4-((2-methyl-7-phenyl-1H-imidazo[4,5-c]pyridin-1-yl)methyl)benzenesulfonamide], the IC50 against ENPP1 [1] and on ENPP1 [2] was less than 1 nM throughout.
With `COc1ncc2c(c1-c1ccccc1)n(Cc1ncc(S(N)(=O)=O)cc1F)c(=O)n2C` [Example 80, 5-fluoro-6-((6-methoxy-3-methyl-2-oxo-7-phenyl-2,3-dihydro-1H-imidazo[4,5-c]pyridin-1-yl)methyl)pyridine-3-sulfonamide], the IC50 against ENPP1 [1] and against ENPP1 [2] was less than 1 nM in each case.
Regarding `Cc1ncc2nc(CF)n(Cc3c(F)cc(S(N)(=O)=O)cc3F)c2c1-c1ccccc1` [Example 47, 3,5-difluoro-4-((2-(fluoromethyl)-6-methyl-7-phenyl-1H-imidazo[4,5-c]pyridin-1-yl)methyl)benzenesulfonamide], the IC50 at ENPP1 [1] and against ENPP1 [2] was less than 1 nM each time.
Regarding `Cc1ncc(-c2ccccc2)c2c1nc(C)n2Cc1ccc(S(N)(=O)=O)cc1` [Example 32, 4-((2,4-dimethyl-7-phenyl-1H-imidazo[4,5-c]pyridin-1-yl)methyl)benzene sulfonamide], the IC50 at ENPP1 [1] and at ENPP1 [2] was less than 1 nM throughout.
As to `[2H]C([2H])([2H])Oc1ncc2nc(C(F)F)n(Cc3ncc(S(N)(=O)=O)cc3F)c2c1-c1ccccc1` [Example 86, 6-((2-(difluoromethyl)-6-(methoxy-d3)-7-phenyl-1H-imidazo[4,5-c]pyridin-1-yl)methyl)-5-fluoropyridine-3-sulfonamide], the IC50 against ENPP1 [1] and against ENPP1 [2] was less than 1 nM in each case.
Consider `Cc1ncc2nc(C(F)(F)F)n(Cc3ncc(S(N)(=O)=O)cc3F)c2c1-c1ccccc1` [Example 69, 5-fluoro-6-((6-methyl-7-phenyl-2-(trifluoromethyl)-1H-imidazo[4,5-c]pyridin-1-yl)methyl)pyridine-3-sulfonamide], for which the IC50 against ENPP1 [1] and at ENPP1 [2] was less than 1 nM throughout.
`COc1ncc2c(c1-c1ccccc1)N(Cc1c(F)cc(S(N)(=O)=O)cc1F)C(=O)C2` [Example 57, 3,5-difluoro-4-((6-methoxy-2-oxo-7-phenyl-2,3-dihydro-1H-pyrrolo[3,2-c]pyridin-1-yl)methyl)benzenesulfonamide]: the IC50 at ENPP1 [1] and against ENPP1 [2] was less than 1 nM each time.
On to `[2H]C([2H])([2H])Oc1ncc2nc(C)n(Cc3ncc(S(N)(=O)=O)cc3F)c2c1-c1ccccc1` [Example 85, 5-fluoro-6-((6-(methoxy-d3)-2-methyl-7-phenyl-1H-imidazo[4,5-c]pyridin-1-yl)methyl)pyridine-3-sulfonamide], for which the half-maximal inhibitory concentration (IC50) at ENPP1 [1] and at ENPP1 [2] was less than 1 nM in each case.
`COc1ncc2ccn(Cc3ccc(S(N)(=O)=O)cc3)c2c1-c1cnn(C(F)(F)F)c1` [Example 11, 4-((6-methoxy-7-(1-(trifluoromethyl)-1H-pyrazol-4-yl)-1H-pyrrolo[3,2-c]pyridin-1-yl)methyl)benzenesulfonamide]: the IC50 against ENPP1 [1] and on ENPP1 [2] was 100 to 1000 nM throughout.
Regarding `COc1ncc2nc(C)n(Cc3ccc(S(N)(=O)=O)c(F)c3)c2c1-c1ccccc1` [Example 36, 2-fluoro-4-((6-methoxy-2-methyl-7-phenyl-1H-imidazo[4,5-c]pyridin-1-yl)methyl)benzenesulfonamide], the concentration for half-maximal inhibition (IC50) at ENPP1 [1] and on ENPP1 [2] was less than 1 nM each time.
As for `COc1ncc2ccn(Cc3ccc(S(N)(=O)=O)cc3)c2c1-c1ccn(C)n1` [Example 5, 4-((6-methoxy-7-(1-methyl-1H-pyrazol-3-yl)-1H-pyrrolo[3,2-c]pyridin-1-yl)methyl)benzenesulfonamide], the IC50 on ENPP1 [1] is 1 to 10 nM; on ENPP1 [2] it was 10 to 100 nM.
In the same order, the values of `Cc1ncc2nc(C3CC3)n(Cc3ccc(S(N)(=O)=O)nc3)c2c1-c1ccccc1` [Example 54, 5-((2-cyclopropyl-6-methyl-7-phenyl-1H-imidazo[4,5-c]pyridin-1-yl)methyl)pyridine-2-sulfonamide] are less than 1 nM and less than 1 nM.
For `COc1ncc2nc(C)n(Cc3ccc(S(N)(=O)=O)cc3)c2c1-c1ccccc1` [Example 22, 4-((6-methoxy-2-methyl-7-phenyl-1H-imidazo[4,5-c]pyridin-1-yl)methyl)benzenesulfonamide], in that order: less than 1 nM and less than 1 nM.
For `Cc1ccccc1-c1c(C)ncc2ncn(Cc3c(F)cc(S(N)(=O)=O)cc3F)c12` [Example 28, 3,5-difluoro-4-((6-methyl-7-(o-tolyl)-1H-imidazo[4,5-c]pyridin-1-yl)methyl)benzene sulfonamide], in that order: 10 to 100 nM and 10 to 100 nM.
Turning to `[2H]C([2H])([2H])Oc1ncc2nc(C)n(Cc3ccc(S(N)(=O)=O)cc3)c2c1-c1ccccc1` [Example 84, 4-((6-(methoxy-d3)-2-methyl-7-phenyl-1H-imidazo[4,5-c]pyridin-1-yl)methyl)benzenesulfonamide], the IC50 against ENPP1 [1] and against ENPP1 [2] was less than 1 nM throughout.
In the case of `COc1ncc2c(C)cn(Cc3ccc(S(N)(=O)=O)cc3)c2c1-c1ccn(C)n1` [Example 6, 4-((6-methoxy-3-methyl-7-(1-methyl-1H-pyrazol-3-yl)-1H-pyrrolo[3,2-c]pyridin-1-yl)methyl)benzenesulfonamide], the IC50 against ENPP1 [1] and against ENPP1 [2] was 1 to 10 nM throughout.
`Cc1ncc2nc(C3CC3)n(Cc3ccc(S(N)(=O)=O)cn3)c2c1-c1ccccc1` [Example 53, 6-((2-cyclopropyl-6-methyl-7-phenyl-1H-imidazo[4,5-c]pyridin-1-yl)methyl)pyridine-3-sulfonamide]: the concentration for half-maximal inhibition (IC50) at ENPP1 [1] and against ENPP1 [2] was less than 1 nM each time.
Take `Cc1ncc2nc(CN(C)C)n(Cc3c(F)cc(S(N)(=O)=O)cc3F)c2c1-c1ccccc1` [Example 49]: the IC50 on ENPP1 [1] and against ENPP1 [2] was less than 1 nM each time.
Regarding `COc1ncc2ccn(Cc3c(F)cc(S(N)(=O)=O)cc3F)c2c1-c1ccn(C)n1` [Example 7, 3,5-difluoro-4-((6-methoxy-7-(1-methyl-1H-pyrazol-3-yl)-1H-pyrrolo[3,2-c]pyridin-1-yl)methyl)benzenesulfonamide], the IC50 at ENPP1 [1] and against ENPP1 [2] was 1 to 10 nM each time.
As to `Cc1ncc2c(c1-c1ccccc1)n(Cc1c(F)cc(S(N)(=O)=O)cc1F)c(=O)n2C` [Example 59, 4-((3,6-dimethyl-2-oxo-7-phenyl-2,3-dihydro-1H-imidazo[4,5-c]pyridin-1-yl)methyl)-3,5-difluorobenzenesulfonamide], the IC50 against ENPP1 [1] and against ENPP1 [2] was less than 1 nM in each case.
In the case of `COc1ncc2ncn(Cc3ccc(S(N)(=O)=O)cc3)c2c1-c1ccccc1` [Example 23, 4-((6-methoxy-7-phenyl-1H-imidazo[4,5-c]pyridin-1-yl)methyl)benzenesulfonamide], the IC50 on ENPP1 [1] and against ENPP1 [2] was less than 1 nM throughout.
Regarding `Cc1nc2cnc(OC(F)F)c(-c3ccccc3)c2n1Cc1ccc(S(N)(=O)=O)cc1` [Example 33, 4-((6-(difluoromethoxy)-2-methyl-7-phenyl-1H-imidazo[4,5-c]pyridin-1-yl)methyl)benzenesulfonamide], the IC50 at ENPP1 [1] and against ENPP1 [2] was less than 1 nM each time.
On to `Cc1ncc2c(C)cn(Cc3ccc(S(N)(=O)=O)cc3)c2c1-c1ccccc1` [Example 16, 4-((3,6-dimethyl-7-phenyl-1H-pyrrolo[3,2-c]pyridin-1-yl)methyl)benzene sulfonamide], for which the half-maximal inhibitory concentration (IC50) against ENPP1 [1] and at ENPP1 [2] was less than 1 nM each time.
